Assay results from patent publication US20240279635A1, “BIOFILM ACTIVITY ADJUSTING METHOD” (NATIONAL INSTITUTE FOR MATERIALS SCIENCE, priority 2021, published 2024).

Tested on: Klebsiella pneumoniae
Experiment: Electric current generation by Klebsiella pneumoniae with electron mediators in a three-electrode electrochemical cell (time-current curve, FIG. 4)
Type: cell-based
Conditions: 100 μM electron mediator, 10 mM glucose, working electrode +0.2 V (vs. Ag/AgCl), 37° C., anaerobic condition, 15 hours, carbon electrodes
Experimental: The experiment was performed using a three-electrode electrochemical cell having carbon electrodes as the working electrode and counter electrode, and a silver/silver chloride electrode as the reference electrode.
First, as an electron source, a liquid culture medium (defined medium) containing 10 mM of glucose and 100 μM of electron mediator (see below) was added to the cell described above, to which Klebsiella pneumoniae (optical density (OD): 0.1) was inoculated, then an electric potential of the working electrode was set to +0.2 V (vs. Ag/AgCl) at 37° C., and the culture medium was incubated under anaerobic condition for 15 hours.
• HNQ: 2-hydroxy-1,4-naphthoquinone • 1-Phenazine: 1-hydroxyphenazine • AQDS: anthraquinone-1,5-disulfonate • AQS: anthraquinone-1-sulfonate • FMN: flavin mono nucleotide • RF: ribobflavin • W/O mediator: no electron mediator
FIG. 4 is a time-current curve.

Compound: O=C1C=C(O)C(=O)c2ccccc21 [HNQ, 2-hydroxy-1,4-naphthoquinone]
- generated electric current (time-current curve): a large electric current could be generated
